Data taken from patent US10844077B2, “Thiazolyl-containing compounds for treating proliferative diseases” (Dana-Farber Cancer Institute, Inc., priority 2014, dated 2020).
Where two headings read alike, the source gives them in different places.

Experiments:
Format in all cases: binding
[1] = target: broad panel of kinases (Homo sapiens, UniProt P00519, Q252H); settings: 1 μM
[2] = target: broad panel of kinases (Homo sapiens, UniProt P53779); settings: JNK3; 1 μM
[3] = target: broad panel of kinases (Homo sapiens, UniProt P10721, T670I/V559D); settings: KIT(V559D, T670I); 1 μM
[4] = target: broad panel of kinases (Homo sapiens, UniProt P12931); settings: SRC; 1 μM
[5] = target: broad panel of kinases (Homo sapiens, UniProt Q5S007); settings: LRRK2; 1 μM
[6] = target: broad panel of kinases (Homo sapiens, UniProt P31152); settings: ERK4; 1 μM
[7] = target: broad panel of kinases (Homo sapiens, UniProt P54646); settings: AMPK-alpha2; 1 μM
[8] = target: broad panel of kinases (Homo sapiens, UniProt P00519, F317I); settings: 1 μM
[9] = target: broad panel of kinases (Homo sapiens, UniProt Q14289); settings: PYK2; 1 μM
[10] = target: broad panel of kinases (Homo sapiens, UniProt Q02763); settings: TIE2; 1 μM
[11] = target: broad panel of kinases (Homo sapiens, UniProt P33981); settings: TTK; 1 μM
[12] = target: broad panel of kinases (Homo sapiens, UniProt Q9Y4K4); settings: MAP4K5; 1 μM
[13] = target: broad panel of kinases (Homo sapiens, UniProt O14733); settings: MKK7; 1 μM
[14] = target: broad panel of kinases (Homo sapiens, UniProt Q96RR4); settings: CAMKK2; 1 μM
[15] = target: broad panel of kinases (Homo sapiens, UniProt P10721, A829P); settings: KIT(A829P); 1 μM
[16] = target: broad panel of kinases (Homo sapiens, UniProt Q92918); settings: HPK1; 1 μM
[17] = target: broad panel of kinases (Homo sapiens, UniProt P42685); settings: FRK; 1 μM
[18] = target: broad panel of kinases (Homo sapiens, UniProt Q8WU08); settings: YANK1; 1 μM
[19] = target: broad panel of kinases (Homo sapiens, UniProt P08581, M1250T); settings: MET(M1250T); 1 μM
[20] = target: broad panel of kinases (Homo sapiens, UniProt P08581, Y1235D); settings: MET(Y1235D); 1 μM
[21] = target: broad panel of kinases (Homo sapiens, UniProt Q13153); settings: PAK1; 1 μM
[22] = target: broad panel of kinases (Homo sapiens, UniProt Q8NFD2); settings: ANKK1; 1 μM
[23] = target: broad panel of kinases (Homo sapiens, UniProt Q15349); settings: 1 μM
[24] = target: broad panel of kinases (Homo sapiens, UniProt P36897); settings: TGFBR1; 1 μM
[25] = target: broad panel of kinases (Homo sapiens, UniProt P78368); settings: CSNK1G2; 1 μM
[26] = target: broad panel of kinases (Homo sapiens, UniProt P23458); settings: 1 μM
[27] = target: broad panel of kinases (Homo sapiens, UniProt Q8IVH8); settings: MAP4K3; 1 μM
[28] = target: broad panel of kinases (Homo sapiens, UniProt Q9UEE5); settings: DRAK1; 1 μM
[29] = target: broad panel of kinases (Homo sapiens, UniProt P42338); settings: PIK3CB; 1 μM
[30] = target: broad panel of kinases (Homo sapiens, UniProt P41743); settings: PRKCI; 1 μM
[31] = target: broad panel of kinases (Homo sapiens, UniProt Q6P3R8); settings: NEK5; 1 μM
[32] = target: broad panel of kinases (Homo sapiens, UniProt Q9UKI8); settings: TLK1; 1 μM
[33] = target: broad panel of kinases (Homo sapiens, UniProt P41240); settings: CSK; 1 μM
[34] = target: broad panel of kinases (Homo sapiens, UniProt Q09013); settings: DMPK; 1 μM
[35] = target: broad panel of kinases (Homo sapiens, UniProt P24723); settings: PRKCH; 1 μM
[36] = target: broad panel of kinases (Homo sapiens, UniProt Q8TDC3); settings: BRSK1; 1 μM

Chain of broad panel of kinases (Homo sapiens, UniProt Q02763) (Q02763 23-1124 limits assumed): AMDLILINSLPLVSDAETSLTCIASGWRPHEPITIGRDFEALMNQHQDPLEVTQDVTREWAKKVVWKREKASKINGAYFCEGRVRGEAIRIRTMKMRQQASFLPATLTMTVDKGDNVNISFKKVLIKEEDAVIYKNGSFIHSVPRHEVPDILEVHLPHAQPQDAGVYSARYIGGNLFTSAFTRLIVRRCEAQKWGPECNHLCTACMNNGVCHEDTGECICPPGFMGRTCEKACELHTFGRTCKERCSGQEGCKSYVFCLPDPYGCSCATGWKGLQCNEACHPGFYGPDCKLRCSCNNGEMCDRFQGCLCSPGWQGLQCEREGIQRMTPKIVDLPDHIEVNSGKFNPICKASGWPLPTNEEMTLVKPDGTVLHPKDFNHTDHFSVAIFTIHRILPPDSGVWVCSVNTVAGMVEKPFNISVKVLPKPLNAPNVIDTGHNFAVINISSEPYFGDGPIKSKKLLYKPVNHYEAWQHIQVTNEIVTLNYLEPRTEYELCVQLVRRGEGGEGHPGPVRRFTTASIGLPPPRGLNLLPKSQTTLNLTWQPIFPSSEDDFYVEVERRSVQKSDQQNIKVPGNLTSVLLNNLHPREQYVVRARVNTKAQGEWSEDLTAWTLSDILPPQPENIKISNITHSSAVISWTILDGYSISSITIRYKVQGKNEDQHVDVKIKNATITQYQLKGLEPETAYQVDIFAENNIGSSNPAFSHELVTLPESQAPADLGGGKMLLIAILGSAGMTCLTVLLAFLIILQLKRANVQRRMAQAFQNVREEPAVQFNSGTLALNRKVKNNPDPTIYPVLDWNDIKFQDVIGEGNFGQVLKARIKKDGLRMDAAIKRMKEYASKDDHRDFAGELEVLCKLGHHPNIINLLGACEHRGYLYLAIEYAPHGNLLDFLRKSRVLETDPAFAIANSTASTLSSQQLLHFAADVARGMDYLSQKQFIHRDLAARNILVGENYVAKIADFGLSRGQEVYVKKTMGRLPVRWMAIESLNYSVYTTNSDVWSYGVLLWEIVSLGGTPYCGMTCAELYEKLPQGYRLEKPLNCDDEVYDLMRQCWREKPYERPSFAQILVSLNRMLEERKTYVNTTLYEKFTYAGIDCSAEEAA
Chain of broad panel of kinases (Homo sapiens, UniProt P36897) (P36897 34-503 limits assumed): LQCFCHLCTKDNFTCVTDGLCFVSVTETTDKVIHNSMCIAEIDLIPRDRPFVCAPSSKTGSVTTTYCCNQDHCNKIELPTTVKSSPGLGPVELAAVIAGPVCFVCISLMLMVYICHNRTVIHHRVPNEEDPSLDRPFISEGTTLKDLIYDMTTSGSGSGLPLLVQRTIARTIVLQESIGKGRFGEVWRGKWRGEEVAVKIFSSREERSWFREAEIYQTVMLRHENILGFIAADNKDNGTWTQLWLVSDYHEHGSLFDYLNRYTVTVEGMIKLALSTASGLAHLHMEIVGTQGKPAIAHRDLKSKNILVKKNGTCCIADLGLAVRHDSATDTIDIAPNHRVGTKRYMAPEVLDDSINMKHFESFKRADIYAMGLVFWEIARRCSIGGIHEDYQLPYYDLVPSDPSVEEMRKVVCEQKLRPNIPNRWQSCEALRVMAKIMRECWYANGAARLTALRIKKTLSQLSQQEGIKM
Chain of broad panel of kinases (Homo sapiens, UniProt P08581, M1250T) (P08581 25-1390 M1250T limits assumed): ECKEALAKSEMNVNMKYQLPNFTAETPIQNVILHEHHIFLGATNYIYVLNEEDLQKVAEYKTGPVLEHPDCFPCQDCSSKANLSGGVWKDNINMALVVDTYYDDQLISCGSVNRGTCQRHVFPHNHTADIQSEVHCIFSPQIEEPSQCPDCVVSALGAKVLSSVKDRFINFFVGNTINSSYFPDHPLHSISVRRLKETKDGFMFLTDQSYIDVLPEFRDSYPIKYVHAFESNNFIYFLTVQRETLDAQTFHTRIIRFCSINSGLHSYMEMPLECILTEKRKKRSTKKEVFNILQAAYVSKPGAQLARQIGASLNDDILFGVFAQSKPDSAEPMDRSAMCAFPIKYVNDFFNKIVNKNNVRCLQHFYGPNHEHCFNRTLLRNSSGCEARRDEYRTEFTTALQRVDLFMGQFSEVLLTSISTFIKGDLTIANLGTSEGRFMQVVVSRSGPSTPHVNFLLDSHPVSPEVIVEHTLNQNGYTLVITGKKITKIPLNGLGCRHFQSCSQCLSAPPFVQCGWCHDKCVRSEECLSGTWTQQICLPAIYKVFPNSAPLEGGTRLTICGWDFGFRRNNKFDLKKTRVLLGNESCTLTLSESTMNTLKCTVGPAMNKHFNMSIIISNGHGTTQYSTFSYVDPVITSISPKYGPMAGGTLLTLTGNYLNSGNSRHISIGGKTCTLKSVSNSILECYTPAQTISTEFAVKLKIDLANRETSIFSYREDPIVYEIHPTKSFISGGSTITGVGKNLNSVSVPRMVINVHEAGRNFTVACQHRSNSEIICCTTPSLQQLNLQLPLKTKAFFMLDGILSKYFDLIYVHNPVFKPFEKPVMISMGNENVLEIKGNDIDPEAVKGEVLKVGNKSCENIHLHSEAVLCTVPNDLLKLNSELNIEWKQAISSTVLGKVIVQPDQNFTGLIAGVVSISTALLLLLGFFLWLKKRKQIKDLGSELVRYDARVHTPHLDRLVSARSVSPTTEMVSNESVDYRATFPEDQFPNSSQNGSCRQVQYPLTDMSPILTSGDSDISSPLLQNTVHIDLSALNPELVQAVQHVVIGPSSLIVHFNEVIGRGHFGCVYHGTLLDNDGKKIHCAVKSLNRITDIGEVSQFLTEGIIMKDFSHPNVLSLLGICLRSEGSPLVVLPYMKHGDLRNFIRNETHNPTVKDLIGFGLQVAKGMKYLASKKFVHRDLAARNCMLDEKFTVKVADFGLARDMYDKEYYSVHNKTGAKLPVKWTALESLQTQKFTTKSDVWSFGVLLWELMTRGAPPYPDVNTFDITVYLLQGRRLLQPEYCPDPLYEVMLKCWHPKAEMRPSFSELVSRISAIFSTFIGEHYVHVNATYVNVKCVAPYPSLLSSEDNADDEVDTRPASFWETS
Chain of broad panel of kinases (Homo sapiens, UniProt P08581, Y1235D) (P08581 25-1390 Y1235D limits assumed): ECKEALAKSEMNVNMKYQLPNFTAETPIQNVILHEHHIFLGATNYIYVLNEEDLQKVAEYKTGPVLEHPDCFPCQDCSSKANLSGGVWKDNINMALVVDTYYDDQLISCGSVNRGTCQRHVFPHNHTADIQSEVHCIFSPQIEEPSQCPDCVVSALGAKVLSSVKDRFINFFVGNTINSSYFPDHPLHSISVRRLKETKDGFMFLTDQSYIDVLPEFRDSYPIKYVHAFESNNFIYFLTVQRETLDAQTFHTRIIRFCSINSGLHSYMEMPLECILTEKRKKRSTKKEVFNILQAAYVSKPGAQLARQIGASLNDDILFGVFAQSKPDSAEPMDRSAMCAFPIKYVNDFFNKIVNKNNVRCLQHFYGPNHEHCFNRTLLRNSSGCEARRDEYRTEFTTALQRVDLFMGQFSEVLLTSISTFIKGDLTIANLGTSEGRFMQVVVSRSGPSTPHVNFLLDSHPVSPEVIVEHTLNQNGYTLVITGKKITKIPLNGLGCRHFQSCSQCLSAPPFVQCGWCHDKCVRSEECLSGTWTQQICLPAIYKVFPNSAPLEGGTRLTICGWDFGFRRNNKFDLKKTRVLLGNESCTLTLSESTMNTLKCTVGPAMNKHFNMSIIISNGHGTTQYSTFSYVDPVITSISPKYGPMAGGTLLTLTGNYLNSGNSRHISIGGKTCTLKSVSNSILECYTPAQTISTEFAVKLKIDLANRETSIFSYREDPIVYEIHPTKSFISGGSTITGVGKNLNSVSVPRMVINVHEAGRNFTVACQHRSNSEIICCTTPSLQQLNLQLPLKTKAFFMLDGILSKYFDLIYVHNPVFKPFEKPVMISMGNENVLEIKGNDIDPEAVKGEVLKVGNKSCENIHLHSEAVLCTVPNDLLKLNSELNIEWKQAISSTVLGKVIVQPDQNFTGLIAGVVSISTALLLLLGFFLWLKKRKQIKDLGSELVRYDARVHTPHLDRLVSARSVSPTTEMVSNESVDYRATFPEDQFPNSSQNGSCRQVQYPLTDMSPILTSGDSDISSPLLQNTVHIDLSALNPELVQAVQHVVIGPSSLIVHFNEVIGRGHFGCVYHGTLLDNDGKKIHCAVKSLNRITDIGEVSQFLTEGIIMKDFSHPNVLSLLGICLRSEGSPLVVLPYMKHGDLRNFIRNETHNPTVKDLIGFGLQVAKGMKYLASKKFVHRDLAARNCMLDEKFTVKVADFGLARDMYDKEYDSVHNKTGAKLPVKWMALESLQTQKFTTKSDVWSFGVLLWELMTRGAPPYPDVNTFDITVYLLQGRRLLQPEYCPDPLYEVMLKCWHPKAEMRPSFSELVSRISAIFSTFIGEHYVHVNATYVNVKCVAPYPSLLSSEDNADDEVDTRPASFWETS
Chain of broad panel of kinases (Homo sapiens, UniProt P41240) (P41240 2-450 limits assumed): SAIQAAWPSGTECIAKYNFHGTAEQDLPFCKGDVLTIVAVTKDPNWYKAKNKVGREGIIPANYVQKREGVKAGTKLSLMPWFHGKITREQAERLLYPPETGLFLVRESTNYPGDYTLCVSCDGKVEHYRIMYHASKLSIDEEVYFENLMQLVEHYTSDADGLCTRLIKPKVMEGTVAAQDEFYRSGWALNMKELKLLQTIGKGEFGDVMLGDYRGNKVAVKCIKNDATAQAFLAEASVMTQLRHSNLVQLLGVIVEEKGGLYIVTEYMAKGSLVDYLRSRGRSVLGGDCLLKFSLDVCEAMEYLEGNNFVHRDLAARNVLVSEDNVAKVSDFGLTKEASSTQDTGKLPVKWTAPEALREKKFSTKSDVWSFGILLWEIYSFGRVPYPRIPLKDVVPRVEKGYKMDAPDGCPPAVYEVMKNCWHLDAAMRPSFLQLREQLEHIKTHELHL

Structure (SMILES)	percent of control binding remaining (lower = stronger binding) [2]	percent of control binding remaining (lower = stronger binding) [3]	percent of control binding remaining (lower = stronger binding) [4]	percent of control binding remaining (lower = stronger binding) [5]	percent of control binding remaining (lower = stronger binding) [6]	percent of control binding remaining (lower = stronger binding) [7]	percent of control binding remaining (lower = stronger binding) [9]	percent of control binding remaining (lower = stronger binding) [11]	percent of control binding remaining (lower = stronger binding) [12]	percent of control binding remaining (lower = stronger binding) [13]	percent of control binding remaining (lower = stronger binding) [14]	percent of control binding remaining (lower = stronger binding) [15]	percent of control binding remaining (lower = stronger binding) [16]	percent of control binding remaining (lower = stronger binding) [17]	percent of control binding remaining (lower = stronger binding) [18]	percent of control binding remaining (lower = stronger binding) [19]	percent of control binding remaining (lower = stronger binding) [20]	percent of control binding remaining (lower = stronger binding) [21]	percent of control binding remaining (lower = stronger binding) [22]	percent of control binding remaining (lower = stronger binding) ([23]; RSK3(Kin.Dom.1-N-terminal))	other results
C=CC(=O)N1CC[C@H](Nc2nc(CN3CCOCC3)cc(Nc3ncc(C(=O)Nc4c(C)cccc4C)s3)n2)C1 [Example I-2]	97%	100%	0%	94%	90%	92%	100%	100%	82%	88%	97%	5.8%	51%	0.1%	100%	100%	95%	100%	94%	93%	percent of control binding remaining (lower = stronger binding) ([1]; ABL1(Q252H)-nonphosphorylated): 0.3%; percent of control binding remaining (lower = stronger binding) ([1]; ABL1(Q252H)-phosphorylated): 0.25%; percent of control binding remaining (lower = stronger binding) ([8]; ABL1(F317I)-nonphosphorylated): 0.15%; percent of control binding remaining (lower = stronger binding) ([8]; ABL1(F317I)-phosphorylated): 5.4%; percent of control binding remaining (lower = stronger binding) [10]: 100%; percent of control binding remaining (lower = stronger binding) ([23]; RSK3(Kin.Dom.2-C-terminal)): 100%; percent of control binding remaining (lower = stronger binding) [24]: 50%; percent of control binding remaining (lower = stronger binding) [25]: 97%; percent of control binding remaining (lower = stronger binding) ([26]; JAK1(JH1domain-catalytic)): 100%; percent of control binding remaining (lower = stronger binding) ([26]; JAK1(JH2domain-pseudokinase)): 100%; percent of control binding remaining (lower = stronger binding) [27]: 100%; percent of control binding remaining (lower = stronger binding) [28]: 100%; percent of control binding remaining (lower = stronger binding) [29]: 100%; percent of control binding remaining (lower = stronger binding) [30]: 94%; percent of control binding remaining (lower = stronger binding) [31]: 96%; percent of control binding remaining (lower = stronger binding) [32]: 100%; percent of control binding remaining (lower = stronger binding) [33]: 1.6%; percent of control binding remaining (lower = stronger binding) [34]: 98%; percent of control binding remaining (lower = stronger binding) [35]: 97%; percent of control binding remaining (lower = stronger binding) [36]: 100%
C=CC(=O)N1CC[C@H](Nc2nccc(Nc3ncc(C(=O)Nc4c(C)cccc4C)s3)n2)C1 [Example I-3]	91%	100%	0%	100%	62%	78%	100%	78%	96%	85%	100%	10%	61%	0.1%	84%	100%	92%	95%	100%	89%	% change compared to control ([1]; ABL1(Q252H)-nonphosphorylated): 0.15%; % change compared to control ([1]; ABL1(Q252H)-phosphorylated): 0.3%; % change compared to control ([8]; ABL1(F317I)-nonphosphorylated): 1.2%; % change compared to control ([8]; ABL1(F317I)-phosphorylated): 5.2%; % change compared to control [10]: 100%; percent of control binding remaining (lower = stronger binding) ([23]; RSK3(Kin.Dom.2-C-terminal)): 97%; percent of control binding remaining (lower = stronger binding) [24]: 97%; percent of control binding remaining (lower = stronger binding) [25]: 93%; percent of control binding remaining (lower = stronger binding) ([26]; JAK1(JH1domain-catalytic)): 100%; percent of control binding remaining (lower = stronger binding) ([26]; JAK1(JH2domain-pseudokinase)): 100%; percent of control binding remaining (lower = stronger binding) [27]: 100%; percent of control binding remaining (lower = stronger binding) [28]: 100%; percent of control binding remaining (lower = stronger binding) [29]: 100%; percent of control binding remaining (lower = stronger binding) [30]: 90%; percent of control binding remaining (lower = stronger binding) [31]: 87%; percent of control binding remaining (lower = stronger binding) [32]: 100%; percent of control binding remaining (lower = stronger binding) [33]: 1.6%; percent of control binding remaining (lower = stronger binding) [34]: 98%; percent of control binding remaining (lower = stronger binding) [35]: 88%; percent of control binding remaining (lower = stronger binding) [36]: 100%
